The subject of the series is CCRIS mutagenicity, Ames/micronucleus/aberration tests. In words: CCRIS mutagenicity studies.
[1] abbreviates: Test System: AMES SALMONELLA TYPHIMURIUM, Strain/Indicator: TA100, Metabolic Activation: NONE, Method: STANDARD PLATE.
[2] abbreviates: Test System: AMES SALMONELLA TYPHIMURIUM, Strain/Indicator: TA100, Metabolic Activation: S-9, Method: STANDARD PLATE.

Activity calls are given as the source filed them. How the calls were made is not given here.

Turning to `CC1=C(Cl)C(=O)OC1O` (stereo not drawn), the mutagenic call is, setting by setting: under setting [1], “active; positive”; (Test System: Ames Salmonella typhimurium, Strain/Indicator: TA100, Metabolic Activation: None, Method: Plate incorporation) “active; positive”; (Test System: Ames Salmonella typhimurium, Strain/Indicator: TA104, Metabolic Activation: None, Method: Plate incorporation) “active; positive”; (Test System: UDS RAT HEPATOCYTES, Strain/Indicator: THYMIDINE INCORPORATION, Metabolic Activation: NONE, Method: AUTORADIOGRAPHY) “active; positive”.

On to `Cc1c(F)c(N2CCNC(C)C2)cc2c1c(=O)c(C(=O)O)cn2C1CC1` (stereo not drawn), for which the mutagenic call runs as follows: (Test System: AMES SALMONELLA TYPHIMURIUM, Strain/Indicator: TA98, Metabolic Activation: NONE, Method: PREINCUBATION) “inactive; negative”; (Test System: AMES SALMONELLA TYPHIMURIUM, Strain/Indicator: TA98, Metabolic Activation: RAT, LIVER, S-9, PHENOBARBITAL AND 5,6-BENZOFLAVONE, Method: PREINCUBATION) “inactive; negative”; (Test System: AMES SALMONELLA TYPHIMURIUM, Strain/Indicator: TA100, Metabolic Activation: NONE, Method: PREINCUBATION) “inactive; negative”; (Test System: AMES SALMONELLA TYPHIMURIUM, Strain/Indicator: TA100, Metabolic Activation: RAT, LIVER, S-9, PHENOBARBITAL AND 5,6-BENZOFLAVONE, Method: PREINCUBATION) “inactive; negative”; (Test System: AMES SALMONELLA TYPHIMURIUM, Strain/Indicator: TA1535, Metabolic Activation: NONE, Method: PREINCUBATION) “inactive; negative”; (Test System: AMES SALMONELLA TYPHIMURIUM, Strain/Indicator: TA1535, Metabolic Activation: RAT, LIVER, S-9, PHENOBARBITAL AND 5,6-BENZOFLAVONE, Method: PREINCUBATION) “inactive; negative”. Further, the mutagenic call was “inactive; negative” (Test System: AMES SALMONELLA TYPHIMURIUM, Strain/Indicator: TA1537, Metabolic Activation: NONE, Method: PREINCUBATION); “inactive; negative” (Test System: AMES SALMONELLA TYPHIMURIUM, Strain/Indicator: TA1537, Metabolic Activation: RAT, LIVER, S-9, PHENOBARBITAL AND 5,6-BENZOFLAVONE, Method: PREINCUBATION); “inactive; negative” (Test System: CHINESE HAMSTER V-79, Strain/Indicator: V-79 (HGPRT)/6-THIOGUANINE, Metabolic Activation: NONE); “inactive; negative” (Test System: CHINESE HAMSTER V-79, Strain/Indicator: V-79 (HGPRT)/6-THIOGUANINE, Metabolic Activation: RAT, LIVER, S-9, PHENOBARBITAL AND 5,6-BENZOFLAVONE); “inactive; negative” (Test System: E. COLI, Strain/Indicator: WP2 UVRA, Metabolic Activation: NONE, Method: PREINCUBATION); “inactive; negative” (Test System: E. COLI, Strain/Indicator: WP2 UVRA, Metabolic Activation: RAT, LIVER, S-9, PHENOBARBITAL AND 5,6-BENZOFLAVONE, Method: PREINCUBATION).

For the compound `CC(=O)OCc1ccc(N=Nc2ccc(N(C)C)cc2)cc1`, the mutagenic call (Test System: AMES SALMONELLA TYPHIMURIUM, Strain/Indicator: TA98, Metabolic Activation: RAT, LIVER, S-9, POLYCHLORINATED BIPHENYLS, Method: PREINCUBATION) was “active; positive” and the mutagenic call (Test System: AMES SALMONELLA TYPHIMURIUM, Strain/Indicator: TA100, Metabolic Activation: RAT, LIVER, S-9, POLYCHLORINATED BIPHENYLS, Method: PREINCUBATION) was “active; positive”.

`CCCCCCCCCC(=O)N=c1sn(C(=O)CCCCCCCCC)c2ccc([N+](=O)[O-])cc12`: under setting [2], the mutagenic call is “active; positive”.

On to `O=[N+]([O-])c1ccc2c(c1)CCc1cc3c(cc1-2)CCc1ccccc1-3`, for which the mutagenic call runs as follows: (Test System: AMES SALMONELLA TYPHIMURIUM, Strain/Indicator: TA98(1,8-DNP6), Metabolic Activation: NONE) “active; positive”; (Test System: AMES SALMONELLA TYPHIMURIUM, Strain/Indicator: TA98(1,8-DNP6), Metabolic Activation: RAT, LIVER, S-9, AROCLOR 1254) “active; positive”; (Test System: AMES SALMONELLA TYPHIMURIUM, Strain/Indicator: TA98(NR), Metabolic Activation: NONE) “active; positive”; (Test System: AMES SALMONELLA TYPHIMURIUM, Strain/Indicator: TA98(NR), Metabolic Activation: RAT, LIVER, S-9, AROCLOR 1254) “active; positive”; (Test System: AMES SALMONELLA TYPHIMURIUM, Strain/Indicator: TA98, Metabolic Activation: NONE) “active; positive”; (Test System: AMES SALMONELLA TYPHIMURIUM, Strain/Indicator: TA98, Metabolic Activation: RAT, LIVER, S-9, AROCLOR 1254) “active; positive”. The mutagenic call (Test System: AMES SALMONELLA TYPHIMURIUM, Strain/Indicator: TA100(NR), Metabolic Activation: NONE) was “inactive; negative”; the mutagenic call (Test System: AMES SALMONELLA TYPHIMURIUM, Strain/Indicator: TA100(NR), Metabolic Activation: RAT, LIVER, S-9, AROCLOR 1254) was “active; positive”; the mutagenic call (Test System: AMES SALMONELLA TYPHIMURIUM, Strain/Indicator: TA100, Metabolic Activation: NONE) is “active; positive”; the mutagenic call (Test System: AMES SALMONELLA TYPHIMURIUM, Strain/Indicator: TA100, Metabolic Activation: RAT, LIVER, S-9, AROCLOR 1254) was “active; positive”; the mutagenic call (Test System: AMES SALMONELLA TYPHIMURIUM, Strain/Indicator: TA104, Metabolic Activation: NONE) is “active; positive”; the mutagenic call (Test System: AMES SALMONELLA TYPHIMURIUM, Strain/Indicator: TA104, Metabolic Activation: RAT, LIVER, S-9, AROCLOR 1254) was “active; positive”.

With `C1=CC2OC2C=CO1` (stereo not drawn), the mutagenic call is “inactive; negative” (Test System: AMES SALMONELLA TYPHIMURIUM, Strain/Indicator: TA98, Metabolic Activation: NONE, Method: STANDARD PLATE); “inactive; negative” (Test System: AMES SALMONELLA TYPHIMURIUM, Strain/Indicator: TA98, Metabolic Activation: RAT, LIVER, S-9, PHENOBARBITAL, Method: STANDARD PLATE); “inactive; negative” under setting [1]; “inactive; negative” (Test System: AMES SALMONELLA TYPHIMURIUM, Strain/Indicator: TA100, Metabolic Activation: RAT, LIVER, S-9, PHENOBARBITAL, Method: STANDARD PLATE); “inactive; negative” (Test System: AMES SALMONELLA TYPHIMURIUM, Strain/Indicator: TM677/8-AZAGUANINE, Metabolic Activation: NONE, Method: STANDARD PLATE).

On to `CCN(Cc1cccc(S(=O)(=O)O)c1)c1ccc(C(=C2C=CC(=[N+](CC)Cc3cccc(S(=O)(=O)[O-])c3)C=C2)c2ccc(S(=O)(=O)O)cc2)cc1`, for which the mutagenic call reads like this: (Test System: AMES SALMONELLA TYPHIMURIUM, Strain/Indicator: TA98, Metabolic Activation: HAMSTER, LIVER, S-9, AROCLOR 1254, Method: STANDARD PLATE) “active; positive”; (Test System: AMES SALMONELLA TYPHIMURIUM, Strain/Indicator: TA98, Metabolic Activation: HAMSTER, LIVER, S-9, Method: PREINCUBATION (PRIVAL METHOD)) “active; positive”; (Test System: AMES SALMONELLA TYPHIMURIUM, Strain/Indicator: TA100, Metabolic Activation: HAMSTER, LIVER, S-9, Method: PREINCUBATION (PRIVAL METHOD)) “active; positive”; (Test System: AMES SALMONELLA TYPHIMURIUM, Strain/Indicator: TA1538, Metabolic Activation: HAMSTER, LIVER, S-9, AROCLOR 1254, Method: STANDARD PLATE) “active; positive”; (Test System: Mouse lymphoma, Strain/Indicator: L5178Y (tk+/tk-), Metabolic Activation: None, Method: Suspension/plate) “active; positive”; (Test System: Mouse lymphoma, Strain/Indicator: L5178Y (tk+/tk-), Metabolic Activation: Rat, Liver, S-9, Aroclor 1254, Method: Suspension/plate) “inactive; negative”.

As to `O=C(CCCl)N=c1sn(C(=O)CCCl)c2ccc(Cl)cc12`, the mutagenic call under setting [2] was “inactive; negative”.

The values are drawn from PubChem BioAssay AID1259407 (Chemical Carcinogenesis Research Information System (CCRIS), 2018).
